From patent US10759796B2, “CXCR4 inhibitors and uses thereof” (X4 Pharmaceuticals, Inc., priority 2016, dated 2020)
Read-outs that look alike come from different tables or passages of the source.

Assays:
[1] = target: CXCR-4 transfected U87 cell line (U87.CXCR4) (Homo sapiens (Human), UniProt P61073); test: Intracellular CXCL-12-induced calcium mobilization assay (FLIPR); assay type: cell-based; details: U87.CXCR4 cells, CXCL-12 25-50 ng/mL; read-out: IC50 CXCL-12 Ca2+ flux U87.CXCR4+
In short: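 U87.CXCR4 cells were seeded at 20,000 per well, cultured 12 hours, then loaded with 4 μM Fluo-2 AM for 45 min at 37° C. in HBSS with 20 mM HEPES and 0.2% BSA, pH 7.4. Calcium flux triggered by CXCL-12 (25-50 ng/mL) was tracked over time by FLIPR fluorescence at 37° C.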

in vitro = details: human, Caco-2, pH 7.4
In short: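 Compounds at 10 μM in HBSS pH 7.4 (0.1–0.3% DMSO) were dosed on Caco-2 monolayers, apical-to-basolateral and basolateral-to-apical, for 90 min at 37 °C, in duplicate. Monolayer integrity was checked by TEER and lucifer yellow flux, read by fluorescence at 485/535 nm. Compound was quantified by LC-MS/MS and Papp calculated.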

[2] = Mouse brain uptake assay, 0-24 h, 4 time points; assay type: in vivo; details: male, 3 mg/kg IV, 4 time points; for Kp / Kp uu: CD1, brain and plasma; for Kp / clearance / half-life / Kp uu: Mouse; for clearance / half-life: CD1, plasma; for half-life: read-out: t½ (converted)
Experimental: The study design (9 animals) consisted of administrating the drug (IV: 3 mg/kg (5 mL/kg) via tail vein injection) and collecting samples at terminal bleeding for plasma and brain at 0.083, 0.5 and 1 h. The blood collection was performed as follows: the animal was restrained manually and approximately 150 μL blood/time point was collected into a dipotassium EDTA tube via retro orbital puncture under anesthesia with isoflurane. The blood sample was put on ice and centrifuged to obtain a plasma sample (2000 g, 5 min under 4° C.) within 15 minutes. The brain collection was performed as follows: a mid-line incision was made in the animal's scalp and the skin was retracted. Using small bone cutters and rongeurs, the skull overlying the brain was removed. The brain was removed using a spatula and the brain rinsed with cold saline. The brain was placed in screw-top tubes, and the tubes were stored at −70° C. until analysis. The IV dosing solution was prepared in 50 mM citrate buffer (pH 4.0) at 0.6 mg/mL.
An aliquot of 30 μL sample was added to 150 μL MeCN containing 50 ng/mL IS (Dexamethasone). The mixture was vortexed for 5 min and centrifuged at 14,000 rpm for 5 min. An aliquot of 5 μL supernatant was injected for LC-MS/MS analysis.
An aliquot of 30 μL brain homogenate (brain:PBS=1:3, w/v) sample was added to 150 μL IS in ACN (Dexamethasone, 50 ng/mL). The mixture was vortexed for 5 min and centrifuged at 14,000 rpm for 5 min. An aliquot of 5 μL supernatant was injected for LC-MS/MS analysis.
The sample analysis was performed on LCMS/MS-003 (API4000, triple quadruple) under the following conditions: positive ion, ESI, MRM detection using dexamethasone as internal standard. HPLC conditions: mobile phase A: H2O (0.025% formic acid (FA) with 1 mM NH4OAc); mobile phase B: MeOH (0.025% FA with 1 mM NH4OAc) on Waters X-Bridge C18 (2.1×50 mm, 2.5 μm) column at 60° C.
A similar experiment was performed with 4 time points taken from 0-24 h.

[3] = Fraction of drug unbound to brain proteins, rat; assay type: in vitro ADME; details: read-out: Fu (b)
[4] = Fraction of drug unbound to plasma proteins, rat; assay type: in vitro ADME; details: read-out: Fu (p)
[5] = CD1, Mouse brain, read-out: AUClast (b)
[6] = CD1, Mouse plasma, read-out: AUClast (p)

Sequence of CXCR-4 transfected U87 cell line (U87.CXCR4) (P61073 whole entry): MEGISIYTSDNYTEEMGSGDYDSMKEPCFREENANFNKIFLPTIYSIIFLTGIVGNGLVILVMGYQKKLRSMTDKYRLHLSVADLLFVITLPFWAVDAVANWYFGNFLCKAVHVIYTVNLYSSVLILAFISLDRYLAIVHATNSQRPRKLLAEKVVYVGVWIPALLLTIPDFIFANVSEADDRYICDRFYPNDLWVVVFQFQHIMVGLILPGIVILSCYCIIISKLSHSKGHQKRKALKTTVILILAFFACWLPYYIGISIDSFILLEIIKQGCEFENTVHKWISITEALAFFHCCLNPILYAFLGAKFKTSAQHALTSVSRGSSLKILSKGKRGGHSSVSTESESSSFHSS

SMILES	IC50 [1]	Papp A→B at 90 min, 10 μM (in vitro)	Papp B→A at 90 min, 10 μM (in vitro)	efflux ratio at 90 min, 10 μM (in vitro)	AUC(0-t) [2, 5]	AUC(0-t) [2, 6]	Kp [2]	clearance [2]	half-life [2]	fraction unbound [3]	fraction unbound [4]	Kp uu [2]
Cc1cccnc1[C@@H]1CCC[C@H](c2cn3c(-c4cccnc4)cccc3n2)N1C [Compound I-6]	0.01 to 100 nM	10 to 30 ×10⁻⁶ cm/s	10 to 30 ×10⁻⁶ cm/s	0.1 to 10	3170 ng·h/mL	1040 ng·h/mL	3.05	48.3 mL/min/kg	216 min			
Cc1cccnc1[C@@H]1CCC[C@H](c2nc3cccc(N4CCN(C)CC4)n3c2Cl)N1C [Compound I-18]	0.01 to 100 nM	0.1 to 10 ×10⁻⁶ cm/s	0.1 to 10 ×10⁻⁶ cm/s	0.1 to 10								
CN1CCN(c2cccc3nc([C@@H]4CCC[C@H](c5ncccc5Cl)N4)cn23)CC1 (single isomer, unassigned) [Compound I-189]	100 to 1000 nM	10 to 30 ×10⁻⁶ cm/s	10 to 30 ×10⁻⁶ cm/s	0.1 to 10						0.061	0.248	
CN1CCN(c2cccc3nc([C@H]4CCC[C@@H](c5ncccc5Cl)N4)cn23)CC1 (racemic) [Compound I-149]	0.01 to 100 nM	10 to 30 ×10⁻⁶ cm/s	10 to 30 ×10⁻⁶ cm/s	0.1 to 10						0.038	0.2	
CCN1CCN(c2cccc3nc([C@H]4CCC[C@@H](c5ncccc5C)N4C)c(Br)n23)CC1 [Compound I-19]	0.01 to 100 nM	0.1 to 10 ×10⁻⁶ cm/s	0.1 to 10 ×10⁻⁶ cm/s	0.1 to 10								
Cc1cccnc1[C@@H]1CCC[C@H](c2cn3c(N4CCN(C)CC4)cccc3n2)N1 [Compound I-187]	0.01 to 100 nM	0.1 to 10 ×10⁻⁶ cm/s	10 to 30 ×10⁻⁶ cm/s	0.1 to 10	1360 ng·h/mL	1720 ng·h/mL	0.79	28.7 mL/min/kg	283 min			0.22
Cc1cccnc1[C@@H]1CCC[C@H](c2nc3cccc(N4CCN(C)CC4)n3c2Cl)N1 [Compound I-146]	100 to 1000 nM	10 to 30 ×10⁻⁶ cm/s	10 to 30 ×10⁻⁶ cm/s	0.1 to 10	34800 ng·h/mL	6590 ng·h/mL	5.29	7.22 mL/min/kg	361 min	0.007	0.07	0.6
Cc1cccnc1[C@@H]1CCC[C@H](c2nc3cccc(N4CCC(N(C)C)CC4)n3c2Cl)N1C [Compound I-114]	0.01 to 100 nM	0.1 to 10 ×10⁻⁶ cm/s	0.1 to 10 ×10⁻⁶ cm/s	0.1 to 10								
CN1CCN(c2cccc3nc([C@H]4CCC[C@@H](c5ncccc5Cl)N4)cn23)CC1 (single isomer, unassigned) [Compound I-188]	0.01 to 100 nM	10 to 30 ×10⁻⁶ cm/s	10 to 30 ×10⁻⁶ cm/s	0.1 to 10						0.057	0.308	
Cc1cccnc1[C@@H]1CCC[C@H](c2nc3cccc(N4CCN(C(C)C)CC4)n3c2Br)N1C [Compound I-20]	100 to 1000 nM	0.1 to 10 ×10⁻⁶ cm/s	0.1 to 10 ×10⁻⁶ cm/s	0.1 to 10								
